From patent US5872280A, “Leukotriene antagonistic benzoic acid derivatives” (Bayer Aktiengesellschaft, priority 1995, dated 1999)

How the values were obtained:
both receptor types = details: Tudhope et al., Eur. J. Pharmacol. (1994) 264, 317-323; cited from earlier work
[1] = molecular target: T1, LTC4 -induced contractions of guinea-pig trachea (Cavia porcellus, UniProt H0VW05); assay: inhibition of LTC4-induced contractions of guinea-pig trachea; type: cell-based; details: read-out: pKB values for the inhibition of LTC4 -induced contractions of guinea-pig trachea (converted)
T1 construct: contractions of guinea-pig tracheae; from tissue; host or cells: guinea-pig trachea
T1 sequence (H0VW05 1-317): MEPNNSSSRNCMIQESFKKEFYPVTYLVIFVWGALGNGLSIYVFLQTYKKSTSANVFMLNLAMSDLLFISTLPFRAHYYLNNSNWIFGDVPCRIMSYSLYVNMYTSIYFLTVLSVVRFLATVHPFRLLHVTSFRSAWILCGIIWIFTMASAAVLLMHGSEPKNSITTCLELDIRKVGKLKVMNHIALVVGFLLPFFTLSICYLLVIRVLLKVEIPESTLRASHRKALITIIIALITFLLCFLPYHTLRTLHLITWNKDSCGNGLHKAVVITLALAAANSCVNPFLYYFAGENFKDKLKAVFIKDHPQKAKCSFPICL
From the text: (§1) The representative preparations used to evaluate these compounds were the inhibition of ^3 H-LTD4 binding to guinea-pig lung membranes, as described in EP 494621, and the inhibition of both LTD4 -induced and LTC4 -induced contractions of guinea-pig tracheae as described by Tudhope et al., Eur. J. Pharmacol (1994) 264, 317-323.

[2] = molecular target: T2, ^3 H-LTD4 binding to guinea-pig lung membranes (Cavia porcellus, UniProt Q2NNR5); assay: inhibition of ^3 H-LTD4 binding to guinea-pig lung membranes; details: for Ki: read-out: pKi values for the inhibition of ^3 H-LTD4 binding to guinea-pig lung membranes (converted)
T2 construct: from tissue; host or cells: guinea-pig lung membranes
T2 sequence (Q2NNR5 1-340): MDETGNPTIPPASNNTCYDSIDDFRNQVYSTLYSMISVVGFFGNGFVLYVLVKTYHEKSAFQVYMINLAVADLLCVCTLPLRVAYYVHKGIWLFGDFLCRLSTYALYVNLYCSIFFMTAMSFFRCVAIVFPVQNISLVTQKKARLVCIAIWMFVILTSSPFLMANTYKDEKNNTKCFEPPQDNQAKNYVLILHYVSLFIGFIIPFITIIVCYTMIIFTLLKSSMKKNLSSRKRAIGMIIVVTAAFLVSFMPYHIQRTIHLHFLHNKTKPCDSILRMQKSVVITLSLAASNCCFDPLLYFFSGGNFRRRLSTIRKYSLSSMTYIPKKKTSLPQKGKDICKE
From the text: as §1

[3] = molecular target: T3, LTD4 -induced contractions of guinea-pig trachea (Cavia porcellus, UniProt Q2NNR5); assay: inhibition of LTD4-induced contractions of guinea-pig trachea; type: cell-based; details: for Kb: read-out: pKB values for the inhibition of LTD4 -induced contractions of guinea-pig trachea (converted)
T3 construct: contractions of guinea-pig tracheae; from tissue; host or cells: guinea-pig trachea
T3 sequence (Q2NNR5 1-340): T2 sequence (Q2NNR5 1-340)
From the text: as §1

| Compound | Ki [2] [nM] | Kb [3] [nM] | other results |
| --- | --- | --- | --- |
| CCCCC/C=C\C\C=C/C=C/C=C/[C@@H](Sc1ccc(C(=O)O)cc1)[C@@H](O)CCCC(=O)O [Compound A] | – | – | activity at both receptor types (both receptor types): comparable activity at both receptor types |
| O=C(O)CCCNC(=O)c1cc(C(=O)O)ccc1OCCCc1ccc(OCCCCOc2ccccc2)cc1 [Example 4] | 794 | 126 | Kb [1]: 63.1 nM |
| O=C(O)CNC(=O)c1cc(C(=O)O)ccc1OCCCc1ccc(OCCCCOc2ccccc2)cc1 [Example 5] | 398 | 79.4 | Kb [1]: 1260 nM |
| O=C(O)CCNC(=O)c1cc(C(=O)O)ccc1OCCCc1ccc(OCCCCOc2ccccc2)cc1 [Example 6] | 251 | 79.4 | Kb [1]: 79.4 nM |
| O=C(O)CCCCNC(=O)c1cc(C(=O)O)ccc1OCCCc1ccc(OCCCCOc2ccccc2)cc1 [Example 7] | – | – | pKi values for the inhibition of ^3 H-LTD4 binding to guinea-pig lung membranes [2]: 5.7; pKB values for the inhibition of LTD4 -induced contractions of guinea-pig trachea [3]: 6.6 |
| O=C(O)c1cccc(NC(=O)c2cc(C(=O)O)ccc2OCCCc2ccc(OCCCCOc3ccccc3)cc2)c1 [Example 8, N-(3-carboxyphenyl)-2-[3-{4-phenoxybutoxy}phenylpropoxy]-5-carboxybenzamide] | – | 631 | – |
| O=C(O)c1ccc(NC(=O)c2cc(C(=O)O)ccc2OCCCc2ccc(OCCCCOc3ccccc3)cc2)cc1 [Example 10] | – | 316 | Kb [1]: 126 nM |
| O=C(O)CCCC(=O)Nc1cc(C(=O)O)ccc1OCCCc1ccc(OCCCCOc2ccccc2)cc1 [Example 11] | 1580 | 251 | Kb [1]: 1000 nM |
| O=C(O)CCCCC(=O)Nc1cc(C(=O)O)ccc1OCCCc1ccc(OCCCCOc2ccccc2)cc1 [Example 12] | 1000 | 251 | Kb [1]: 501 nM |
| O=C(O)CCC(=O)Nc1cc(C(=O)O)ccc1OCCCc1ccc(OCCCCOc2ccccc2)cc1 [Example 13] | 1000 | 126 | – |
| O=C(O)CC(=O)Nc1cc(C(=O)O)ccc1OCCCc1ccc(OCCCCOc2ccccc2)cc1 [Example 14] | 316 | 251 | – |
| O=C(O)CCCC(=O)Nc1cc(C(=O)O)ccc1OCCc1ccc(OCCCCOc2ccccc2)cc1 [Example 15] | – | – | pKi values for the inhibition of ^3 H-LTD4 binding to guinea-pig lung membranes [2]: 5.3; pKB values for the inhibition of LTD4 -induced contractions of guinea-pig trachea [3]: 6.4 |
| O=C(O)COc1cc(C(=O)O)ccc1NC(=O)CCc1ccc(OCCCCOc2ccccc2)cc1 [Example 16] | 50.1 | 50.1 | – |
| O=C(O)CCCOc1cc(C(=O)O)ccc1NC(=O)CCc1ccc(OCCCCOc2ccccc2)cc1 [Example 17] | 398 | 251 | – |
| O=C(O)CCCCCOc1cc(C(=O)O)ccc1NC(=O)CCc1ccc(OCCCCOc2ccccc2)cc1 [Example 18] | 631 | 79.4 | – |
| O=C(O)CCCSc1cc(C(=O)O)ccc1NC(=O)CCc1ccc(OCCCCOc2ccccc2)cc1 [Example 20] | – | 316 | – |
| O=C(O)CCCC(=O)c1cc(C(=O)O)ccc1NC(=O)CCc1ccc(OCCCCOc2ccccc2)cc1 [Example 21] | – | 31.6 | – |
| O=C(CCc1ccc(OCCCCOc2ccccc2)cc1)Nc1ccc(C(=O)O)cc1C(=O)O [Example 22] | 251 | 50.1 | – |
| O=C(CCc1ccc(OCCCCOc2ccccc2)cc1)Nc1cc(C(=O)O)cc(C(=O)O)c1 [Example 23] | 3160 | 1260 | – |
| O=C(CCCc1ccc(OCCCCOc2ccccc2)cc1)Nc1ccc(C(=O)O)cc1C(=O)O [Example 24, 3-carboxy-4-([4-{4-phenoxybutoxy}phenyl]-1-oxobutyl)aminobenzoic acid] | 501 | 50.1 | – |
| O=C(CCCc1ccc(OCCCCOc2ccccc2)cc1)Nc1cc(C(=O)O)cc(C(=O)O)c1 [Example 25, 3-carboxy-5-([4-{4-phenoxybutoxy}phenyl]-1-oxobutyl)aminobenzoic acid] | 1580 | 1580 | – |
| O=C(Cc1ccc(OCCCCOc2ccccc2)cc1)Nc1ccc(C(=O)O)cc1C(=O)O [Example 26] | – | 1260 | – |
| CS(=O)(=O)Nc1ccc(OCCCc2ccc(OCCCCOc3ccccc3)cc2)c(C(=O)O)c1 [Example 29, 2-(3-[4-{4-phenoxybutoxy}phenyl]propoxy)-5-(methylsulfonylamino)benzoic acid] | 2000 | 2000 | – |
| O=C(O)c1cc(NS(=O)(=O)c2ccccc2)ccc1OCCCc1ccc(OCCCCOc2ccccc2)cc1 [Example 30, 2-(3-[4-{4-phenoxybutoxy}phenyl]propoxy)-5-(phenylsulfonylamino)benzoic acid] | 5010 | 20000 | – |
| CS(=O)(=O)Nc1ccc(OCCCc2ccc(OCCCCOc3ccccc3)cc2)c(C(=O)NCCC(=O)O)c1 [Example 31, 4-aza-5-(5-[methylsulfonylamino]-2-(3-[4-{4-phenoxybutoxy}phenyl]-propoxy)phenyl)-5-oxopentanoic acid] | 316 | 3980 | – |
| O=C(O)CCC(=O)Nc1cc(C(=O)O)ccc1SCCc1ccc(OCCCCOc2ccccc2)cc1 [Example 32, 5-aza-5-(5-carboxy-2-(3-[4-{4-phenoxybutoxy}phenyl]-1-thiapropyl) -phenyl)-4-oxopentanoic acid] | – | 316 | – |
| O=C(O)CCCC(=O)Nc1cc(C(=O)O)ccc1SCCc1ccc(OCCCCOc2ccccc2)cc1 [Example 33] | – | – | pKB values for the inhibition of LTD4 -induced contractions of guinea-pig trachea [3]: 6.6 |
| CS(=O)(=O)Nc1ccc(SCCc2ccc(OCCCCOc3ccccc3)cc2)c(C(=O)NCCC(=O)O)c1 [Example 34, 5-aza-5-(5-methylsulfonylamino]-2-(3-[4-{4-phenoxybutoxy}phenyl]-1-thiapropyl)phenyl-4-oxopentanoic acid] | – | – | pKi values for the inhibition of ^3 H-LTD4 binding to guinea-pig lung membranes [2]: 5.7; pKB values for the inhibition of LTD4 -induced contractions of guinea-pig trachea [3]: 5.6 |
| O=C(O)CCCNC(=O)c1cc(C(=O)O)ccc1OCCCc1cccc(OCCCCOc2ccccc2)c1 [Example 36, 5-aza-6-(5-carboxy-2-(3-[3-{4-phenoxybutoxy}phenyl]propoxy)phenyl)-6-oxohexanoic acid] | 25100 | – | – |
